Measured values taken from US10696692B2, “Amido-benzyl sulfone and sulfoxide derivates” (Forma TM, LLC, priority 2012, dated 2020).
Like-named read-outs stand apart in the source and are kept apart here.

Key:
NAMPT = NAMPT (Homo sapiens (Human), UniProt P43490); test: Assay 1: Biochemical Inhibition Assay (NAMPT enzymatic reaction, NMN quantified by mass spectrometry); conditions: read-out: Biochemical (IC50);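 further: recombinant His-tagged human NAMPT preincubated with compound 15 min, then reacted 30 min at rt with 1 µM NAM, 100 µM PRPP, 2.5 mM ATP, NMN product read by RapidFire MS, normalized to L-Cystathionine internal standard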
A2780 cells = test: Assay 2: In-Vitro Cell Proliferation Assay (A2780 cells, SRB readout, 72 hours); type: cell-based; conditions: A2780 cells, 72 hours, SRB, read-out: Cell Proliferation (IC50);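 further: viable cells counted via sulforhodamine B staining, absorbance at 570 nm, after 72 h exposure at 37 °C, DMSO 0.1% as control, media-only background subtracted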

Chain of NAMPT (P43490 whole entry): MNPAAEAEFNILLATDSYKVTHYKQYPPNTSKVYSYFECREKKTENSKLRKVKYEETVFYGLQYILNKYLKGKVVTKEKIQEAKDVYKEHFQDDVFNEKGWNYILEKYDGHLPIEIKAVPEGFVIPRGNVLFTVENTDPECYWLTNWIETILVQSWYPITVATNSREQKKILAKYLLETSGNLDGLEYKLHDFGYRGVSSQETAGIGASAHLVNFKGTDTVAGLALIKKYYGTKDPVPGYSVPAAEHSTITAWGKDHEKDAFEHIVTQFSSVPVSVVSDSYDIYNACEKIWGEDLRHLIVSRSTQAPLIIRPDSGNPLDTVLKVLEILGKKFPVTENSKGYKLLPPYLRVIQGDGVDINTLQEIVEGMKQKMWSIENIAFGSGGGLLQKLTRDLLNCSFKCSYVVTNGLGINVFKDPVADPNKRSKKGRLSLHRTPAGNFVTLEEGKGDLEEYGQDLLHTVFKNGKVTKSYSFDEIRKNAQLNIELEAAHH

Molecule	IC50 (NAMPT) [µM]	IC50 (A2780 cells; Homo sapiens, A2780, 72 h) [µM]	IC50 (A2780 cells) [µM]
O=C(NCc1ccc(S(=O)(=O)N2CC3CC3C2)cc1)c1ccc2nccn2c1 (stereo not drawn) [Example 160, Imidazo[1,2-a]pyridine-6-carboxylic acid 4-(3-aza-bicyclo[3.1.0]hexane-3-sulfonyl)-benzylamide]	0.0047	0.0153	
O=C(NCc1ccc(S(=O)(=O)N2CC3COCC(C2)C3O)cc1)c1ccc2nccn2c1 (stereo not drawn) [Example 138, Imidazo[1,2-a]pyridine-6-carboxylic acid 4-(9-hydroxy-3-oxa-7-aza-bicyclo[3.3.1]nonane-7-sulfonyl)-benzylamide]	0.0288	0.0249	
O=C(NCc1ccc(S(=O)(=O)N2CCC3(CNC3)C2)cc1)c1ccc2nccn2c1 [Example 215, N-[[4-(2,6-diazaspiro[3.4]octan-6-ylsulfonyl)phenyl]methyl] imidazo[1,2-a]pyridine-6-carboxamide]	0.0815	0.166	
CS(=O)(=O)N1CCC(S(=O)(=O)c2ccc(CNC(=O)c3cnc4[nH]ncc4c3)cc2)CC1 [Example 349, N-[[4-[(1-methylsulfonyl-4-piperidyl)sulfonyl]phenyl]methyl]-1H-pyrazolo[3,4-b]pyridine-5-carboxamide]	0.0735	0.0522	
CN1C[C@H]2C[C@@H](C1)N(S(=O)(=O)c1ccc(CNC(=O)c3ccc4nccn4c3)cc1)C2 (racemic) [Example 165, cis-Imidazo[1,2-a]pyridine-6-carboxylic acid 4-(3-methyl-3,6-diaza-bicyclo[3.2.1]octane-6-sulfonyl)-benzylamide]	0.0958	0.022	
O=C(NCc1ccc(S(=O)(=O)N2CCC3(CCCNC3)CC2)cc1)c1ccc2nccn2c1 [Example 325, N-[[4-(2,9-diazaspiro[5.5]undecan-9-ylsulfonyl)phenyl]methyl] imidazo[1,2-a]pyridine-6-carboxamide]	0.0256	0.0275	
O=C(NCc1ccc(S(=O)(=O)N2CCC[C@@H](O)C2)cc1)c1cc2ccncc2o1 [Example 151, Furo[2,3-c]pyridine-2-carboxylic acid 4-((R)-3-hydroxy-piperidine-1-sulfonyl)-benzylamide]	0.0274	0.045	
tert-butyl 7-[4-[(imidazo[1,2- a]pyridine-6- carbonylamino)methyl]phenyl] sulfonyl-1,7- diazaspiro[4.4]nonane-1- carboxylate [Example 236]	0.0133		0.00179
O=C(NCc1ccc(S(=O)(=O)N2CC3CCOC3C2)cc1)c1cc2ccncc2o1 (stereo not drawn) [Example 302, N-[[4-(2,3,3a,4,6,6a-hexahydrofuro[2,3-c]pyrrol-5-ylsulfonyl)phenyl]methyl]furo [2,3-c]pyridine-2-carboxamide]	0.0418	0.0271	
O=C(NCc1ccc(S(=O)(=O)C2CCN(C(=O)c3ccccc3)C2)cc1)c1cnc2[nH]ncc2c1 (stereo not drawn) [Example 351, N-[[4-(1-benzoylpyrrolidin-3-yl)sulfonylphenyl]methyl]-1H-pyrazolo[3,4-b]pyridine-5-carboxamide]	0.0711	0.107	
O=C(NCc1ccc(S(=O)(=O)C2CCCOC2)cc1)c1cnc2[nH]ncc2c1 (racemic) [Example 155, 1H-Pyrazolo[3,4-b]pyridine-5-carboxylic acid 4-(tetrahydro-pyran-3-sulfonyl)-benzylamide]	0.219	0.176	
O=C(NCc1ccc(S(=O)(=O)C2CCN(C3COC3)CC2)cc1)c1ccc2nccn2c1 [Example 248, N-[[4-[[1-(oxetan-3-yl)-4-piperidyl]sulfonyl]phenyl]methyl]imidazo[1,2-a] pyridine-6-carboxamide]	0.0194		0.00558
O=C(NCc1ccc(S(=O)(=O)N2CCC(F)(F)C2)cc1)c1ccc2nccn2c1 [Example 99, Imidazo[1,2-a]pyridine-6-carboxylic acid 4-(3,3-difluoro-pyrrolidine-1-sulfonyl)-benzylamide]	0.0158	0.0077	
O=C(NCc1ccc(S(=O)(=O)N2CC3(CCCO3)C2)cc1)c1ccc2nccn2c1 [Example 274, N-[(4-(5-oxa-2-azaspiro[3.4]octan-2-ylsulfonyl)phenyl]methyl] imidazo[1,2-a]pyridine-6-carboxamide]	0.019	0.00593	
CC(=O)N1CCC(S(=O)(=O)c2ccc(CNC(=O)c3cnc4nccn4c3)cc2)CC1 [Example 86, Imidazo[1,2-a]pyrimidine-6-carboxylic acid 4-(1-acetyl-piperidine-4-sulfonyl)-benzylamide]	0.0051		0.527
N#CCC1CCN(S(=O)(=O)c2ccc(CNC(=O)c3cc4ccncc4o3)cc2)CC1 [Example 13]	0.0126	0.0338	
CC(=O)N1CCCC(S(=O)(=O)c2ccc(CNC(=O)c3cnc4[nH]ncc4c3)cc2)C1 (stereo not drawn) [Example 347, N-[[4-[(1-acetyl-3-piperidyl)sulfonyl]phenyl]methyl]-1H-pyrazolo[3,4-b]pyridine-5-carboxamide]	0.381	0.64	

Molecule	IC50 (NAMPT) [µM]	IC50 (A2780 cells; Homo sapiens, A2780, 72 h) [µM]	IC50 (A2780 cells) [µM]
O=C(NCc1ccc(S(=O)(=O)[C@H]2CCOC2)cc1)c1cnc2[nH]ncc2c1 [Example 231, N-[[4-[(3S)-tetrahydrofuran-3-yl]sulfonylphenyl]methyl]-1H-pyrazolo[3,4-b]pyridine-5-carboxamide]	0.315	0.977	
O=C(NCc1ccc(S(=O)(=O)N2CCN(C3CCOCC3)CC2)cc1)c1cc2ccncc2o1 [Example 170, Furo[2,3-c]pyridine-2-carboxylic acid 4-[4-(tetrahydro-pyran-4-yl)-piperazine-1-sulfonyl]-benzylamide]	0.0304	0.0119	
CN1CCC2(C1)CN(S(=O)(=O)c1ccc(CNC(=O)c3cnc4[nH]ncc4c3)cc1)C2 [Example 283, N-[[4-[(7-methyl-2,7-diazaspiro[3.4]octan-2-yl)sulfonyl]phenyl]methyl]-1H-pyrazolo[3,4-b]pyridine-5-carboxamide]	0.199	0.129	
CN(C)CCN1CCN(S(=O)(=O)c2ccc(CNC(=O)c3ccc4nccn4c3)cc2)CC1 [Example 105, Imidazo[1,2-a]pyridine-6-carboxylic acid 4-[4-(2-dimethylamino-ethyl)-piperazine-1-sulfonyl]-benzylamide]	0.0068	0.009	
N#CCCN1CCN(S(=O)(=O)c2ccc(CNC(=O)c3ccc4nccn4c3)cc2)CC1 [Example 104, Imidazo[1,2-a]pyridine-6-carboxylic acid 4-[4-(2-cyano-ethyl)-piperazine-1-sulfonyl]-benzylamide]	0.0269	0.0088	
O=C(NCc1ccc(S(=O)(=O)C2CCN(CC(F)(F)F)CC2)cc1)c1ccc2nccn2c1 [Example 210, N-[[4-[[1-(2,2,2-trifluoroethyl)-4-piperidyl)sulfonyl]phenyl]methyl]imidazo[1,2-a]pyridine-6-carboxamide]	0.0177	0.00347	
O=C(NCc1ccc([S+]([O-])C2CCN(CC(F)(F)F)CC2)cc1)c1cc2ccncc2o1 (stereo not drawn) [Example 356, N-[[4-[[1-(2,2,2-trifluoroethyl)-4-piperidyl]sulfinyl]phenyl]methyl]furo[2,3-c]pyridine-2-carboxamide]	0.0135	0.00325	
N#CCCNC1CCN(S(=O)(=O)c2ccc(CNC(=O)c3cnc4[nH]ncc4c3)cc2)CC1 [Example 57, 1H-Pyrazolo[3,4-b]pyridine-5-carboxylic acid 4-[4-(2-cyano-ethylamino)-piperidine-1-sulfonyl]-benzylamide]	0.0648	0.0555	
CC1(O)CCN(S(=O)(=O)c2ccc(CNC(=O)c3ccc4nccn4c3)cc2)CC1 [Example 145, Imidazo[1,2-a]pyridine-6-carboxylic acid 4-(4-hydroxy-4-methyl-piperidine-1-sulfonyl)-benzylamide]	0.0284	0.0125	
O=C(NCc1ccc(S(=O)(=O)N2CC3CC(F)(F)CC3C2)cc1)c1cc2ccncc2o1 (stereo not drawn) [Example 297, N-[[4-[(5,5-difluoro-1,3,3a,4,6,6a-hexahydrocyclopenta[c]pyrrol-2-yl)sulfonyl]phenyl]methyl]furo [2,3-c]pyridine-2-carboxamide]	0.0166	0.0512	
CC(=O)N1CCC(S(=O)(=O)c2ccc(CNC(=O)c3cc4ccncc4o3)cc2)CC1 [Example 207, N-[[4-[(1-acetyl-4-piperidyl)sulfonyl]phenyl]methyl]furo[2,3-c]pyridine-2-carboxamide]	0.0293	0.025	
O=C(NCc1ccc(S(=O)(=O)N2CCC[C@@H](O)C2)cc1)c1ccc2nccn2c1 [Example 53, Imidazo[1,2-a]pyridine-6-carboxylic acid 4-((R)-3-hydroxy-piperidine-1-sulfonyl)-benzylamide]	0.0169	0.0226	
O=C(NCc1ccc(S(=O)(=O)N2CCC(O)CC2)cc1)c1cc2cnccc2[nH]1 [Example 31, 1H-Pyrrolo[3,2-c]pyridine-2-carboxylic acid 4-(4-hydroxy-piperidine-1-sulfonyl)-benzylamide]	0.055	0.0482	
O=C(NCc1ccc(S(=O)(=O)N2CCOC3(CCCNC3)C2)cc1)c1ccc2nccn2c1 (stereo not drawn) [Example 322, N-[[4-(1-oxa-4,8-diazaspiro[5.5]undecan-4-ylsulfonyl)phenyl]methyl] imidazo[1,2-a]pyridine-6-carboxamide]	0.0434	0.039	
O=C(NCc1ccc(S(=O)(=O)N2CCC3(CCCO3)C2)cc1)c1cc2ccncc2o1 (stereo not drawn) [Example 303, N-[[4-(1-oxa-7-azaspiro[4.4]nonan-7-ylsulfonyl)phenyl]methyl]furo [2.3-c]pyridine-2-carboxamide]	0.0227	0.0154	
O=C(NCc1ccc(S(=O)(=O)[C@@H]2CCOC2)cc1)c1cnc2nccn2c1 [Example 80, Imidazo[1,2-a]pyrimidine-6-carboxylic acid 4-[(R)-(tetrahydro-furan-3-yl)sulfonyl]-benzylamide]	0.0089		0.457
